pIC50: −log10 of the molar value.

The first assay addresses T1, Axl (Homo sapiens, UniProt P30530).
T1 construct: endogenous in cells; host or cells: HeLa
T1 sequence (P30530 26-894): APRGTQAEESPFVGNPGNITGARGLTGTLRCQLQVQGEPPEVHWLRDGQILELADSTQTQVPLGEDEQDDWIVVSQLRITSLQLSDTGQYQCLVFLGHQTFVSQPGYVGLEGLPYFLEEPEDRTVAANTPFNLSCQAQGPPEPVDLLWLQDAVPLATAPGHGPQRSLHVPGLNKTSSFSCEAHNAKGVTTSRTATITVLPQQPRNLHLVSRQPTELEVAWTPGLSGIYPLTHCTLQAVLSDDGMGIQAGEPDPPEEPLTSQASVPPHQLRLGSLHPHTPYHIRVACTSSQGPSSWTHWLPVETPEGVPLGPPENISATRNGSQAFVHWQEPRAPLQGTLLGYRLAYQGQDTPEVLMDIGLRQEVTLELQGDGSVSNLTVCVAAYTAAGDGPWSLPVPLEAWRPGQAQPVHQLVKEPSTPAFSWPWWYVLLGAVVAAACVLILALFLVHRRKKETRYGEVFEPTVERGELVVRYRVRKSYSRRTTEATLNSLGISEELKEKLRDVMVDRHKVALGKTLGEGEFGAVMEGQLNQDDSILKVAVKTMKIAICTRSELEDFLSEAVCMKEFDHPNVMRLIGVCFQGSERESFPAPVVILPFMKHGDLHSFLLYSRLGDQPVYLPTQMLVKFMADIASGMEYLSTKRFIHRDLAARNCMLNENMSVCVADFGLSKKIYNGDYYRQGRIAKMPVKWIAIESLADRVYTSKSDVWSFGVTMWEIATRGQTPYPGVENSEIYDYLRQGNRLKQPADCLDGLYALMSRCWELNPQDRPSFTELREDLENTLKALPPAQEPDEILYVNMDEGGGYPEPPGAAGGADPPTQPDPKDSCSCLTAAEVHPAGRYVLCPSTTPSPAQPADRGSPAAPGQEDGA
Put plainly: Phospho-AKT in-cell Western assay (inhibition of Axl activity). The format is cell-based. The conditions noted are these: Table 1, formula (Ia); Hela cells, Axl antibody cross-linking stimulation, phospho-Akt chemiluminescence normalized to relative cell number. A digest of the protocol:
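HeLa cells were starved 24 h in 0.5% FCS with Axl/Fc 500 ng/mL, pre-treated with compound for 1 h at 37 °C, then stimulated 5 min by anti-Axl antibody cross-linking. Fixed cells were probed for phospho-AKT with an HRP-linked in-cell Western and read by chemiluminescence.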
As a reminder, the pIC50 is the IC50 on a negative log10 scale, so that one unit is a factor of ten. The low end stands for a high IC50, the high end for a low IC50. Regarding `CCN(CC)C1CCN(c2ccc(Nc3ncc(C(F)(F)F)c(N[C@@]4(C)[C@@H](C(=O)NC)C[C@H]5C[C@@H]4C5(C)C)n3)cc2F)CC1` [Compound 52, (1R,2R,3S,5R)-2-(5-trifluoromethyl-2-(3-fluoro-4-(4-(diethylamino)piperidin-1-yl)phenylamino)pyrimidin-4-ylamino)-N,2,6,6-tetramethylbicyclo[3.1.1]heptane-3-carboxamide], the pIC50 was more than 6.00. In turn, `CNC(=O)[C@H]1C[C@H]2C[C@H](C2(C)C)[C@@]1(C)Nc1nc(Nc2ccc(N3CCC(N4CCC(C)CC4)CC3)c(F)c2)ncc1Cl` [Compound 54, (1R,2R,3S,5R)-2-(5-chloro-2-(3-fluoro-4-(4-(4-methylpiperidin-1-yl)piperidin-1-yl)phenylamino)pyrimidin-4-ylamino)-N,2,6,6-tetramethylbicyclo[3.1.1]heptane-3-carboxamide] gave a pIC50 of more than 6.00.

Turning to `CNC(=O)[C@H]1C[C@H]2C[C@H](C2(C)C)[C@@]1(C)Nc1nc(Nc2ccc(N3CCC(N4CCC(C)CC4)CC3)c(F)c2)ncc1F` [Compound 55, (1R,2R,3S,5R)-2-(5-fluoro-2-(3-fluoro-4-(4-(4-methylpiperidin-1-yl)piperidin-1-yl)phenylamino)pyrimidin-4-ylamino)-N,2,6,6-tetramethylbicyclo[3.1.1]heptane-3-carboxamide], the pIC50 is more than 6.00. On to `CC1(C)[C@H]2C[C@H](C(=O)NC3CC3)[C@](C)(Nc3nc(Nc4ccc(OCCN5CCCC5)cc4)ncc3Cl)[C@@H]1C2` [Compound 61, (1R,2R,3S,5R)-2-(5-chloro-2-(4-(2-(pyrrolidin-1-yl)ethoxy)phenylamino)pyrimidin-4-ylamino)-N-cyclopropyl-2,6,6-trimethylbicyclo[3.1.1]heptane-3-carboxamide], for which the pIC50 was more than 6.00. In the case of `CCN(CC)C1CCN(c2ccc(Nc3ncc(Cl)c(N[C@@]4(C)[C@@H](C(=O)NC5CC5)C[C@H]5C[C@@H]4C5(C)C)n3)cc2F)CC1` [Compound 62, (1R,2R,3S,5R)-2-(5-chloro-2-(3-fluoro-4-(4-(diethylamino)piperidin-1-yl)phenylamino)pyrimidin-4-ylamino)-N-cyclopropyl-2,6,6-trimethylbicyclo[3.1.1]heptane-3-carboxamide], the pIC50 is more than 6.00.

Turning to `CC(C)NC(=O)[C@H]1C[C@H]2C[C@H](C2(C)C)[C@@]1(C)Nc1nc(Nc2ccc(OCCN3CCCC3)cc2)ncc1Cl` [Compound 63, (1R,2R,3S,5R)-2-(5-chloro-2-(4-(2-(pyrrolidin-1-yl)ethoxy)phenylamino)pyrimidin-4-ylamino)-N-(1-methylethyl)-2,6,6-trimethylbicyclo[3.1.1]heptane-3-carboxamide], the pIC50 was more than 6.00.

The assay is the same for the next values; noted with them: Table 3, formula (Ic); Hela cells, Axl antibody cross-linking stimulation, phospho-Akt chemiluminescence normalized to relative cell number.
The compound `CNC(=O)[C@H]1C[C@H]2C[C@H](C2(C)C)[C@@]1(C)Nc1nc(Nc2ccc3c(c2)OCCN3CCN(C)C)ncc1C` [Compound 49, (1R,2R,3S,5R)-2-(5-methyl-2-((3,4-dihydro-4-(2-(dimethylamino)ethyl)-2H-benzo[b][1,4]oxazin-7-yl)amino)pyrimidin-4-ylamino)-N,2,6,6-tetramethylbicyclo[3.1.1]heptane-3-carboxamide] showed a pIC50 of 5.00 to 6.00. With `CNC(=O)[C@H]1C[C@H]2C[C@H](C2(C)C)[C@@]1(C)Nc1nc(Nc2ccc3c(c2)N(CCN(C)C)CCO3)ncc1Cl` [Compound 50, (1R,2R,3S,5R)-2-(5-chloro-2-((3,4-dihydro-4-(2-(dimethylamino)ethyl)-2H-benzo[b][1,4]oxazin-6-yl)amino)pyrimidin-4-ylamino)-N,2,6,6-tetramethylbicyclo[3.1.1]heptane-3-carboxamide], the pIC50 is 5.00 to 6.00. Compound `CNC(=O)[C@H]1C[C@H]2C[C@H](C2(C)C)[C@@]1(C)Nc1nc(Nc2ccc3c(c2)N(CCN(C)C)CCO3)ncc1F` [Compound 51, (1R,2R,3S,5R)-2-(5-fluoro-2-((3,4-dihydro-4-(2-(dimethylamino)ethyl)-2H-benzo[b][1,4]oxazin-6-yl)amino)pyrimidin-4-ylamino)-N,2,6,6-tetramethylbicyclo[3.1.1]heptane-3-carboxamide] showed a pIC50 of 5.00 to 6.00. On the same count and under the same terms, the same measure for `CCN(CC)CCN1CCOc2cc(Nc3ncc(C(F)(F)F)c(N[C@@]4(C)[C@@H](C(=O)NC)C[C@H]5C[C@@H]4C5(C)C)n3)ccc21` [Compound 53, (1R,2R,3S,5R)-2-(5-trifluoromethyl-2-((3,4-dihydro-4-(2-(diethylamino)ethyl)-2H-benzo[b][1,4]oxazin-7-yl)-amino)pyrimidin-4-ylamino)-N,2,6,6-tetramethylbicyclo[3.1.1]heptane-3-carboxamide]: more than 6.00; for `CNC(=O)[C@H]1C[C@H]2C[C@H](C2(C)C)[C@@]1(C)Nc1nc(Nc2ccc3c(c2)OCCN3CCN2CCCCC2)ncc1Cl` [Compound 56, (1R,2R,3S,5R)-2-(5-chloro-2-((3,4-dihydro-4-(2-(piperidin-1-yl)ethyl)-2H-benzo[b][1,4]oxazin-7-yl)amino)pyrimidin-4-ylamino)-N,2,6,6-tetramethylbicyclo[3.1.1]heptane-3-carboxamide]: more than 6.00; for `CNC(=O)[C@H]1C[C@H]2C[C@H](C2(C)C)[C@@]1(C)Nc1nc(Nc2ccc3c(c2)OCCN3CCN2CCCCC2)ncc1F` [Compound 57, (1R,2R,3S,5R)-2-(5-fluoro-2-((3,4-dihydro-4-(2-(piperidin-1-yl)ethyl)-2H-benzo[b][1,4]oxazin-7-yl)amino)pyrimidin-4-ylamino)-N,2,6,6-tetramethylbicyclo[3.1.1]heptane-3-carboxamide]: more than 6.00.

As for `CNC(=O)[C@H]1C[C@H]2C[C@H](C2(C)C)[C@@]1(C)Nc1nc(Nc2ccc3c(c2)OCCN3CCN2CCOCC2)ncc1Cl` [Compound 58, (1R,2R,3S,5R)-2-(5-chloro-2-((3,4-dihydro-4-(2-(morpholin-4-yl)ethyl)-2H-benzo[b][1,4]oxazin-7-yl)amino)pyrimidin-4-ylamino)-N,2,6,6-tetramethylbicyclo[3.1.1]heptane-3-carboxamide], the pIC50 was more than 6.00. On to `CNC(=O)[C@H]1C[C@H]2C[C@H](C2(C)C)[C@@]1(C)Nc1nc(Nc2ccc3c(c2)OCCN3CCN2CCOCC2)ncc1F` [Compound 59, (1R,2R,3S,5R)-2-(5-fluoro-2-((3,4-dihydro-4-(2-(morpholin-4-yl)ethyl)-2H-benzo[b][1,4]oxazin-7-yl)amino)pyrimidin-4-ylamino)-N,2,6,6-tetramethylbicyclo[3.1.1]heptane-3-carboxamide], for which the pIC50 is 5.00 to 6.00. As to `CN(C)CCN1CCOc2cc(Nc3ncc(Cl)c(N[C@@]4(C)[C@@H](C(=O)NCCO)C[C@H]5C[C@@H]4C5(C)C)n3)ccc21` [Compound 60, (1R,2R,3S,5R)-2-(5-chloro-2-((3,4-dihydro-4-(2-(dimethylamino)ethyl)-2H-benzo[b][1,4]oxazin-7-yl)amino)pyrimidin-4-ylamino)-N-(2-hydroxyethyl)-2,6,6-trimethylbicyclo[3.1.1]heptane-3-carboxamide], the pIC50 was more than 6.00. On the same count and under the same terms, in the case of `CC(C)NC(=O)[C@H]1C[C@H]2C[C@H](C2(C)C)[C@@]1(C)Nc1nc(Nc2ccc3c(c2)OCCN3CCN(C)C)ncc1Cl` [Compound 64, (1R,2R,3S,5R)-2-(5-chloro-2-((3,4-dihydro-4-(2-(dimethylamino)ethyl)-2H-benzo[b][1,4]oxazin-7-yl)amino)pyrimidin-4-ylamino)-N-(1-methylethyl)-2,6,6-trimethylbicyclo[3.1.1]heptane-3-carboxamide] it was more than 6.00.

These data come from patent publication US8563559B2 (Rigel Pharmaceuticals, Inc., priority 2006, dated 2013).
